Reference: US10112918B2, “15-oxospiramilactone derivatives, preparation method and uses thereof” (Kunming Institute of Botany, The Chinese Academy of Sciences, priority 2013, dated 2018)
Where two headings read alike, the source gives them in different places.

Key:
Type in all cases: cell-based
[1] = system: HL-60 (human promyelocytic leukemia cells); experiment: MTT inhibition of tumor cell growth, HL-60; details: Homo sapiens, HL-60, 48 h
Procedure, shortened: (§1)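 Compound exposure lasts 48 h at 37° C on cells plated at 5000-10000 per well in serum-containing medium. Viability is read by MTT reduction at 595 nm, and IC50 is computed with the two-point Reed and Muench method.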

[2] = system: SMMC-7721 (human hepatoma cells); experiment: MTT inhibition of tumor cell growth, SMMC-7721; details: Homo sapiens, SMMC-7721, 48 h
Procedure, shortened: as §1

[3] = system: A-549 (Human lung adenocarcinoma cells); experiment: MTT inhibition of tumor cell growth, A-549; details: Homo sapiens, A549, 48 h
Procedure, shortened: as §1

[4] = system: MCF-7 (human breast cancer cells); experiment: MTT inhibition of tumor cell growth, MCF-7; details: Homo sapiens, MCF7, 48 h
Procedure, shortened: as §1

[5] = system: Wnt signaling pathway (Top-Flash reporter gene); experiment: Top-Flash Wnt reporter gene assay in HEK293T cells with Wnt3a conditioned medium
Procedure, shortened: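 HEK293T transfected with TOP-flash (5 ng/well) plus GFP plasmid for normalization, then treated 6 h with mouse Wnt3a conditioned medium from L cells, with or without compound. GFP-normalized luciferase minus DMSO-only background, scaled to Wnt-induced activity; IC50 at 0.5 relative residual activity from 4-parameter logistic fit.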

[6] = Table 1, 7-hydroxy derivatives of S-3
[7] = Table 2, derivatives having potential Michael reaction acceptor
[8] = Table 3, single Michael reaction acceptor, modified lactonic ring
[9] = Table 4, derivatives obtained by reduction of the lactonic ring
[10] = Table 5, derivatives having double Michael reaction acceptor
[11] = Table 7 (first), alkaloid derivatives

IC50 [1, 6]: 6.36 µM
IC50 [1, 7]: 6.36 µM
IC50 [1, 8]: 6.36 µM
IC50 [1, 9]: 6.36 µM
IC50 [1, 10]: 6.36 µM
IC50 [1, 11]: 6.36 µM
IC50 [2, 6]: 3.96 µM
IC50 [2, 7]: 3.96 µM
IC50 [2, 8]: 3.96 µM
IC50 [2, 9]: 3.96 µM
IC50 [2, 10]: 3.96 µM
IC50 [2, 11]: 3.96 µM
IC50 [3, 6]: 3.22 µM
IC50 [3, 7]: 3.22 µM
IC50 [3, 8]: 3.22 µM
IC50 [3, 9]: 3.22 µM
IC50 [3, 10]: 3.22 µM
IC50 [3, 11]: 3.22 µM
IC50 [4, 6]: 3.25 µM
IC50 [4, 7]: 3.25 µM
IC50 [4, 8]: 3.25 µM
IC50 [4, 9]: 3.25 µM
IC50 [4, 10]: 3.25 µM
IC50 [4, 11]: 3.25 µM
IC50 ([5]; Homo sapiens, HEK-293T, 6 h, Table 7 (second), derivatives modified on 7-hydroxyl of S-3, HEK293T, Wnt3a conditioned medium, 6 h, read-out: IC50 (μM), inhibitory activity on the Wnt signaling pathway): 18.4 ± 1.82 µM
IC50 ([5]; Homo sapiens, HEK-293T, 6 h, Table 8, HEK293T, Wnt3a conditioned medium, 6 h, read-out: IC50 (μM), inhibitory activity on the Wnt signaling pathway): 18.7 ± 0.58 µM
IC50 ([5]; Homo sapiens, HEK-293T, 6 h, Table 9, HEK293T, Wnt3a conditioned medium, 6 h, read-out: IC50(μM), inhibitory activity on the Wnt signaling pathway): 18 ± 0.28 µM
IC50 ([5]; Homo sapiens, HEK-293T, 6 h, Table 10, HEK293T, Wnt3a conditioned medium, 6 h, read-out: IC50 (μM), inhibitory activity on the Wnt signaling pathway): 13.9 ± 2.01 µM
IC50 ([5]; Homo sapiens, HEK-293T, 6 h, Table 11, HEK293T, Wnt3a conditioned medium, 6 h, read-out: IC50 (μM), inhibitory activity on the Wnt signaling pathway): 22.5 ± 0.56 µM
IC50 ([5]; Homo sapiens, HEK-293T, footnotes of Tables 8 and 9: S-3 control in the run of the compounds marked a or b, read-out: corresponding IC50 value of S-3 (Wnt signaling pathway)): 18.4 µM
IC50 ([5]; footnotes of Tables 8 and 9: S-3 control in the run of the compounds marked a or b, listed as S-3, read-out: corresponding IC50 value of S-3 (Wnt signaling pathway)): 15.3 µM
Structure (SMILES): C=C1C(=O)[C@]23CC[C@H]1CC2[C@@]12CCC[C@@](C)(COC1=O)C2C[C@H]3O (stereo partly shown) [Compound 1, 15-oxospiramilactone]
